{"source": "paper PMC5723147", "about": "“Effective Antimicrobial Activity of Plectasin-Derived Antimicrobial Peptides against Staphylococcus aureus Infection in Mammary Glands” (Frontiers in Microbiology, 2017)", "key": {"[1]": {"tested_on": "Staphylococcus aureus E48", "experiment": "Minimum inhibitory concentration (broth microdilution, Mueller-Hinton broth)", "type": "cell-based", "settings": "5 × 10^5 CFU/mL, 37°C, 16-20 h, three replicates, read-out: MIC against S. aureus E48", "protocol": "Staphylococcus aureus E48, a clinical mastitis isolate, had been used to induce mouse mastitis model ([Wang et al., 2017]). […] It was used as a positive control in this study and was purchased from Sigma–Aldrich. The AMPs were prepared according to a previously described protocol ([Zhang et al., 2015]). The minimum inhibitory concentrations (MICs) were used to evaluate the antibacterial activities of antimicrobial agents ([Wiegand et al., 2008]). Briefly, S. aureus were grown to the log-phase at 37°C in the Mueller–Hinton broth, and diluted to 5 × 10^5 CFU/mL with the fresh medium. A total of 180 μL of cell suspension and 20 μL of serially twofold diluted peptide were added to each well, and the plates were incubated at 37°C for 16–20 h. The final concentration of antimicrobial agents was prepared with gradients of 64, 32, 16, 8, 4, 2, 1, 0.5, 0.25, 0.125, and 0.0625 μg/mL. Three replicates were examined for each concentration. The MICs refer to the lowest concentration where no growth was visible after 16–20 h of incubation."}, "[2]": {"tested_on": "S. aureus E48 in mammary glands", "experiment": "Mouse model of S. aureus-induced mastitis", "type": "in vivo, BALB/c mice", "protocol": "The animal protocols used in this work were approved by Institutional Animal Care and Use Committee of Northwest A&F University. The 6- to 8-week-old specific-pathogen-free BALB/c mice were purchased from the Experimental Animal Center of the Medical College of Xi’an Jiao Tong University. […] The lactating mice were challenged with S. aureus E48 as described earlier ([Schmelcher et al., 2015]). The pentobarbital sodium (1.4 mg/20 g bodyweight) was used for anesthesia of the lactating mice by intraperitoneal injection. The distal end of the teat L4 (on the left) and R4 (on the right) was removed (snipped) by a small cut. These L4 and R4 glands constitute the fourth pair found from head to tail. For all groups except for the snipped only group, glands were injected with approximately 10^4 CFU S. aureus in 50 μL PBS. At 45 min after S. aureus inoculation, the challenged glands were injected with 100 μg AMPs in 20 μL or 20 μL of PBS, depending on the treatment. The mice were euthanized 24 h after the S. aureus inoculation, and mammary glands were aseptically collected and weighed. Five mice (10 mammary glands) were used for each group. Seven mammary glands from each treatment were sampled and homogenized in PBS (100 mg/200 μL). Serial dilution plating on Baird-Parker agar plates was done to determine intramammary S. aureus. A part of the homogenate was centrifuged, and the supernatant was used for tumor necrosis factor alpha (TNF-α) and interleukin 6 (IL-6) assays, using the mouse TNF-α and IL-6 ELISA kits (Shanghai Bangyi Biotechnology). The tissue from three mammary glands from each treatment was fixed with 10% buffered formalin for histopathological analyses (HE staining)."}, "[3]": {"settings": "100 μg intramammary, 24 h post-infection, ELISA, P < 0.05"}}, "data": [{"compound": "CN(C)[C@@H]1C(O)=C(C(N)=O)C(=O)[C@@]2(O)C(O)=C3C(=O)c4c(O)cccc4[C@@](C)(O)[C@H]3C[C@@H]12", "note": "[tetracycline, Tetracycline]", "values": [{"measurement": "MIC", "setting": "[1]", "result": 1, "unit": "µg/mL"}, {"measurement": "Reduction of S. aureus numbers in mammary glands compared to PBS control", "setting": "[2]; 100 μg intramammary 45 min after ~10^4 CFU inoculation, 24 h after inoculation", "result": 1.48, "unit": "log10 units"}, {"measurement": "S. aureus-induced inflammatory cell infiltration in mammary tissue (HE staining)", "setting": "[2]; 100 μg intramammary, 24 h", "result": "significantly reduced"}, {"measurement": "Intramammary IL-6 concentration in comparison with buffer control", "setting": "[2]; [3]", "result": "significantly reduced"}, {"measurement": "Intramammary TNF-α concentration in comparison with buffer control", "setting": "[2]; [3]", "result": "significantly reduced"}]}]}
